{
  "source": "patent US10736872B1",
  "about": "“Pharmaceutical mixture to treat statin induced vascular calcification” (priority 2019, dated 2020)",
  "assay_type_in_all_cases": "cell-based",
  "key": {"[1]": {"system": "human dermal fibroblasts (DF)", "experiment": "Expression of osteoblast markers in human dermal fibroblasts (immunoassay)", "conditions": "100 mcM ascorbic acid, 5 mM beta-glycerophosphate and 25 mcM forskolin, 4 weeks, FIG. 3B"}, "[2]": {"system": "human aortic smooth muscle cells (AoSMC)", "experiment": "Calcium accumulation in extracellular matrix of AoSMC", "description": "Cell viability was monitored with MTT assay. […] Plant-derived micronutrients suppress monocyte adhesion to cultured human aortic endothelial cell layer by modulating its extracellular matrix composition. J Cardiovasc Pharmacol 2008; 52:55-65. After four washes with PBS, ECM layers were solubilized by incubation in 0.6N HCl for 48 hours at 37° C. Calcium content in solubilized samples was measured with TECO Ca assay according to the manufacturer's protocol. […] The calcification process of AoSMC was evaluated by the activity of cellular alkaline phosphatase and calcium accumulation in the cell-produced extracellular matrix (FIG. 1)."}, "human aortic SMC": {"system": "human aortic SMC", "experiment": "Expression of osteoblast markers in AoSMC (immunoassay)", "conditions": "100 mcM ascorbic acid, 5 mM beta-glycerophosphate and 25 mcM forskolin, 4 weeks, FIG. 3A"}, "[3]": {"system": "human aortic smooth muscle cells (AoSMC)", "experiment": "Alkaline phosphatase activity assay in AoSMC", "conditions": "for decrease in ALP activity: 5 mM b-GP, 25 mcM forskolin; for increase of ALP activity / increase of ALP activity compared to control / increase in ALP activity compared to control: 1 mcM statin; for increase of ALP activity compared to control / increase in ALP activity compared to control: four days; for increase of ALP activity compared to control: FIG. 4A; for increase in ALP activity compared to control: pro-calcification condition (5 mM b-GP and 25 mcM forskolin), FIG. 4B", "description": "Alkaline phosphatase activity assay in AoSMC: AoSMC were plated in 96 well plates and grown to confluent layer. […] Cells were washed with phosphate buffered saline (PBS) and supplemented with 50 mcl/well 25 mcg/ml 4-MUP (fluorescent ALP substrate, Sigma) in alkaline buffer (Sigma)/1% Triton X100 for 1 h at room temperature. Fluorescence was measured at 360/450 nm.\nStatistical analysis: Results in figures are means±standard deviation (SD) from three or more repetitions from the most representative of at least two independent experiments. Differences between samples were estimated with a two-tailed Student's t-test using Excel software (Microsoft) and accepted as significant at p levels less than 0.05. The results in FIGS. 4A and 4B and FIGS. 5A and 5B are expressed as percentage of supplemented controls and presented as means±SD from six or more repetitions from the most representative of at least two independent experiments.\nThe calcification process of AoSMC was evaluated by the activity of cellular alkaline phosphatase (ALP). The study assessed the effects of Mixture 1 (micronutrient combination containing ascorbate) and ascorbate individually under standard (5% FBS/DMEM) and pro-calcification conditions (5% FBS/DMEM supplemented with 5 mM beta-glycerophosphate (b-GP) and 25 mcM forskolin—FIG. 4B)."}, "[4]": {"conditions": "100 mcM ascorbate in the presence of simvastatin, without forskolin, FIG. 2A"}, "[5]": {"conditions": "300 mcM ascorbate, regular growth medium, FIG. 1"}, "[6]": {"conditions": "plain 5% FBS/DMEM, five days, FIG. 5A"}, "[7]": {"conditions": "pro-calcification conditions (5 mM b-GP, 25 mcM forskolin), five days, FIG. 5B"}},
  "data": [
    {"molecule": "O=C1O[C@H]([C@@H](O)CO)C(O)=C1O", "note": "[ascorbic acid, L-ascorbic acid]", "values": [
      {"measurement": "expression of all tested osteogenic markers", "setting": "[1]", "value": "significantly reduced"},
      {"measurement": "decrease of calcium accumulation", "setting": "[2]; 100 mcM ascorbate added in the presence of mevastatin, with forskolin, FIG. 2B, to below control values", "value": 19, "unit": "%"},
      {"measurement": "accumulated calcium", "setting": "[2]; [4]", "value": 0.2, "unit": "mcg/well"},
      {"measurement": "decrease of accumulated calcium", "setting": "[2]; [4]", "value": 54, "unit": "%"},
      {"measurement": "decrease of extracellular Ca accumulation by AoSMC", "setting": "[2]; [5]", "value": 20, "unit": "%"},
      {"measurement": "expression of all tested osteogenic markers", "setting": "human aortic SMC", "value": "significantly reduced"},
      {"measurement": "ALP activity after addition of ascorbate", "setting": "[3]; 300 mcM ascorbate in the presence of 1 mcM simvastatin, plain 5% FBS/DMEM, five days, FIG. 5A", "value": "decreased to control level"},
      {"measurement": "decrease in ALP activity", "setting": "[3]; 300 mcM ascorbate, mevastatin containing samples, five days, FIG. 5B", "value": 37, "unit": "%"},
      {"measurement": "decrease in ALP activity", "setting": "[3]; 300 mcM ascorbate, pravastatin containing samples, five days, FIG. 5B", "value": 24, "unit": "%"},
      {"measurement": "decrease of alkaline phosphatase activity", "setting": "[3]; [5]", "value": 80, "unit": "%"},
      {"measurement": "decrease in ALP activity", "setting": "[3]; 300 mcM ascorbate, simvastatin containing samples, five days, FIG. 5B", "value": 36, "unit": "%"},
      {"measurement": "decrease in ALP activity", "setting": "[3]; 300 mcM ascorbic acid in the absence of statins, five days, FIG. 5B", "value": 29, "unit": "%"},
      {"measurement": "decrease of statin-stimulated ALP activity", "setting": "[3]; 300 mcM ascorbic acid in the presence of 1 mcM mevastatin, plain 5% FBS/DMEM, five days, FIG. 5A", "value": 29, "unit": "%"},
      {"measurement": "decrease of statin-stimulated ALP activity", "setting": "[3]; 300 mcM ascorbic acid in the presence of 1 mcM pravastatin, plain 5% FBS/DMEM, five days, FIG. 5A", "value": 30, "unit": "%"},
      {"measurement": "decrease of alkaline phosphatase activity", "setting": "[3]; 300 mcM ascorbic acid, no statin, plain 5% FBS/DMEM, five days, FIG. 5A", "value": "about 43%"}
    ]},
    {"molecule": "CC[C@H](C)C(=O)O[C@H]1CCC=C2C=C[C@H](C)[C@H](CC[C@@H]3C[C@@H](O)CC(=O)O3)[C@H]21", "note": "[mevastatin]", "values": [
      {"measurement": "calcium accumulation", "setting": "[2]; 1 mM mevastatin, with 25 mcM forskolin, FIG. 2B, control 1.35 mcg/well", "value": 1.8, "unit": "mcg/well"},
      {"measurement": "increase of ALP activity", "setting": "[3]; [6]", "value": 61, "unit": "%"},
      {"measurement": "increase of ALP activity compared to control", "setting": "[3]; plain 5% FBS/DMEM", "value": 25, "unit": "%"},
      {"measurement": "increase in ALP activity compared to control", "setting": "[3]", "value": 39, "unit": "%"},
      {"measurement": "increase of ALP activity", "setting": "[3]; [7]", "value": 41, "unit": "%"}
    ]},
    {"molecule": "CC[C@H](C)C(=O)O[C@H]1C[C@H](O)C=C2C=C[C@H](C)[C@H](CC[C@@H](O)C[C@@H](O)CC(=O)O)[C@H]21", "note": "[pravastatin]", "values": [
      {"measurement": "increase of ALP activity", "setting": "[3]; [6]", "value": 60, "unit": "%"},
      {"measurement": "increase of ALP activity compared to control", "setting": "[3]; plain 5% FBS/DMEM", "value": 39, "unit": "%"},
      {"measurement": "increase in ALP activity compared to control", "setting": "[3]", "value": 25, "unit": "%"},
      {"measurement": "increase of ALP activity", "setting": "[3]; [7]", "value": 25, "unit": "%"}
    ]},
    {"molecule": "CCC(C)(C)C(=O)O[C@H]1C[C@@H](C)C=C2C=C[C@H](C)[C@H](CC[C@@H]3C[C@@H](O)CC(=O)O3)[C@H]21", "note": "[simvastatin]", "values": [
      {"measurement": "increase of calcium accumulation in AoSMC layers", "setting": "[2]; simvastatin, without forskolin, FIG. 2A", "value": 23, "unit": "%"},
      {"measurement": "increase of ALP activity", "setting": "[3]; [6]", "value": 57, "unit": "%"},
      {"measurement": "increase in ALP activity compared to control", "setting": "[3]", "value": 22, "unit": "%"},
      {"measurement": "increase of ALP activity", "setting": "[3]; [7]", "value": 30, "unit": "%"}
    ]}
  ]
}
